Assay results: article PMC11927960, “Multiparameter ranking of carbazoles for anti-trypanosome lead discovery” (Frontiers in drug discovery, 2024)

Experiments:
[1] = test system: endocytosis of transferrin (Tf) in Trypanosoma brucei; test: Endocytosis of transferrin (flow cytometry); format: cell-based; settings: for Effect on endocytosis of Tf / Endocytosis Transferrin: DTC25; for Increase of Tf endocytosis compared to DMSO: DTC25, 6 h, not statistically significant; for Endocytosis Transferrin: Table S3
Protocol: Cells were washed and resuspended in serum-free medium. Trypanosomes were incubated with fluorescent endocytosis ligands transferrin (Tf) or bovine serum albumin (BSA) for 30 min (37 °C). A flow cytometer was used to detect fluorescence intensity per cell. Propidium iodide (PI) was used to stain and gate out non-viable cells. Histograms present fluorescence intensity of Tf-AF488 (A) or BSA-AF647 (B) for every cell (n > 10,000 for each cargo) in DMSO or drug-treated samples. Points on the scatter plot represent mean fluorescence intensities of Tf (C) or BSA (D) from three biological replicates (calculated with FlowJo). Bars indicate mean ± SD. Student’s t-test was used to evaluate statistical significance of differences in mean intensity of endocytosed ligand in DMSO-treated sample compared to curaxin-treated samples.
Curaxin or DMSO-treated trypanosomes (5 × 10^5/mL) were washed with serum-free HMI-9 medium (500 uL). Trypanosomes were resuspended in serum-free HMI-9 medium (100 μL) supplemented with either transferrin–[…] conjugate (50 μg, Invitrogen, Eugene, OR) or BSA–AlexaFluor647 conjugate (50 μg, Invitrogen, Eugene, OR) for 30 min at 37 °C, 5% CO2. Cells were transferred to an ice-water bath, washed with cold PBS/G at 4 °C (3,000 g for 5 min), resuspended in PBS/G (500 μL) containing propidium iodide (3 μM), and analyzed on a flow cytometer (Beckman Coulter CytoFLEX S). FlowJo software (FlowJo, LLC) was used to gate trypanosomes based on size and shape (forward and side scatter features), and fluorescence intensity of endocytosed protein was measured in viable cells (negative for propidium iodide uptake). FlowJo software was used to determine the mean fluorescence intensity of each cargo in trypanosomes (at least 10,000 events). Data from three independent biological experiments were analyzed with a two-tailed Student’s t-test with unequal variance to determine the possible statistical significance of differences in means of fluorescence intensities of endocytosed cargo.

T. brucei Lister427 [2] = test: Delayed trypanocidal assay (6 h exposure, wash-off); format: cell-based, Trypanosoma brucei; settings: for DTC25 (Figure 1) / DTC50 (Figure 1) / DTC90 (Figure 1): 5 × 10^5/mL, 6 h, wash, 24 h drug-free, unit not given; for DTC50 (concentration causing 50% cidality): 6-h treatment and wash-off
Protocol: Trypanosomes were washed, enumerated with a Coulter Counter, and transferred into a drug-free HMI-9 medium for 24 h in a 24-well plate (1 × 10^5 cells/mL). After 24 h, cells were enumerated with a Coulter counter (see flow-chart). Data obtained were analyzed using GraphPad Prism to determine DTC25, DTC50, and DTC90 values.
Delayed trypanocidal assay
Mid-logarithmic growth-phase T. b. Lister427 were inoculated into HMI-9 medium (5 × 10^5 cell/mL). Cells were incubated with either 0.1% DMSO (vehicle) or serial dilutions of drug in 24-well plates for 6 h at 37 °C/5% CO2, following which trypanosomes were pelleted (3,000 g, 5 min), rinsed with drug-free HMI-9 medium, and cells enumerated with a Coulter counter. Trypanosomes were then inoculated at 1 × 10^5 cells/mL in 24-well-plates or 384-well plates and cultured for 24 h, after which trypanosomes were checked for viability with a hemocytometer and enumerated with a Coulter counter. Each experiment was performed thrice, and non-linear regression graphs plotted with GraphPad Prism were used to obtain DTC50 values ([Bachovchin et al., 2019]).

T. brucei AnTat1.1 = test: Treatment of chronic HAT in a mouse model of disease; format: in vivo, Trypanosoma brucei in Swiss-Webster mice; settings: for Mean parasitemia on day 7 post-infection: CBL0174 60 mg/kg, CBL0187 50 mg/kg orally from day 3, vehicle 1.64 × 10^7; for Outcome in chronic HAT mouse model: oral, CBL0137 40 mg/kg days 2-5, 8-11, 14, 15, CBL0174 60 mg/kg and CBL0187 50 mg/kg days 3-9
Protocol: Mice were each infected intraperitoneally with Trypanosoma brucei AnTat1.1 (10^4). […] (B) CBL0174 and CBL0187: Groups V, B, and D were given vehicle, CBL0174 (60 mg/kg) and CBL0187 (50 mg/kg), respectively, from day 3 through 9. Different shapes represent individual mice, and horizontal lines in each group denote mean parasitemia determined with a hemocytometer. UND = undetectable; DPI = days post-infection.
Treatment of chronic HAT in a mouse model of disease
Drug efficacy studies in a mouse model of HAT were conducted following recommendations in the “Guide for the Care and Use of Laboratory Animals” of the National Institutes of Health. The protocol was approved by the Institutional Animal Care and Use Committee (IACUC) at the University of Georgia. After the study, the mice were euthanized by CO2 asphyxiation followed by incision to form a bilateral pneumothorax, as approved by the American Veterinary Association.
Female Swiss-Webster mice (20–25 g; 8–10 weeks old) were acclimatized for 1 week before the commencement of the study. […] Parasites in blood collected from a tail venipuncture and diluted 8-fold in RBC lysis buffer (Qiagen) were monitored with a hemocytometer (Neubauer Bright-line). During the study, mice with parasitemia above 10^8 trypanosomes/mL were euthanized for humane reasons. Mice without parasitemia for 90 days were considered cured.

[3] = Plasma pharmacokinetics after single oral dose; format: in vivo, Swiss Webster mice; settings: Swiss Webster, mouse; for AUC(0-t): female mice values of Table 3, quoted in μM, read-out: AUC0–6h
Protocol: The plasma concentration and tissue distribution of drugs were determined by Absorption Systems. […] Blood and brain samples were obtained at 1, 2, 4, and 6 h post-dosing, and plasma and brain concentrations of the drug were determined using LC-MS/MS. Stock standards for calibration were prepared in a matrix comprising equal volumes of water and mouse blood containing K2-EDTA as an anticoagulant. Working solutions were prepared in 50:50 acetonitrile–water and added to the matrix to final concentrations of 1,000, 500, 100, 50.0, 10.0, 5.00, 1.00, and 0.500 ng/mL for all compounds. Pharmacokinetic parameters were determined using Phoenix WinNonlin (v8.0) software with sparse sampling. Maximum plasma concentration (Cmax) and the time to reach maximum plasma concentration (tmax) were determined from the four data points. The area under the time concentration curve (AUClast) was calculated using the linear trapezoidal rule with calculation to a 6-h data point. Plasma half-life (t1/2) was calculated from 0.693/slope of the terminal elimination phase. Samples below the limit of detection (0.500 ng/mL) were treated as 0.

T. brucei Lister427 [4] = test: Delayed trypanocidal assay (6 h exposure, wash-off); format: cell-based, Trypanosoma brucei; settings: starting cell density 1 × 10^5/mL instead of 5 × 10^5/mL
[5] = 6 h treatment at 5 × 10^5/mL, wash-off, survival tracked 24 h

| Structure (SMILES) | Fold increase of Tf endocytosis compared to DMSO [1] | Effect on endocytosis of Tf [1] | Increase of Tf endocytosis compared to DMSO [1] | Endocytosis Transferrin [1] | DTC25 (Figure 1) (T. brucei Lister427 [2]) | DTC50 (Figure 1) (T. brucei Lister427 [2]) | DTC90 (Figure 1) (T. brucei Lister427 [2]) | DTC50 (concentration causing 50% cidality) (T. brucei Lister427 [2]) | DTC50 T. brucei Lister427 (T. brucei Lister427 [2]; [5]) | DTC90 T. brucei Lister427 (T. brucei Lister427 [2]; [5]) | Mean parasitemia on day 7 post-infection (T. brucei AnTat1.1) | Outcome in chronic HAT mouse model (T. brucei AnTat1.1) | AUC(0-t) [3] | Tmax ([3]; female) | half-life ([3]; female) | Tmax ([3]; male) | half-life ([3]; male) | DTC25 T. brucei Lister427 (value in parenthesis) (T. brucei Lister427 [4]) | DTC50 T. brucei Lister427 (value in parenthesis) (T. brucei Lister427 [4]) | DTC90 T. brucei Lister427 (value in parenthesis) (T. brucei Lister427 [4]) | other results |
| --- | --- | --- | --- | --- | --- | --- | --- | --- | --- | --- | --- | --- | --- | --- | --- | --- | --- | --- | --- | --- | --- |
| CC(=O)c1cc2c3cc(C(C)=O)c(O)cc3n(CCCN(C)C)c2cc1O [CBL0174, 1-[6-acetyl-9-[3-(dimethylamino)propyl]-2,7-dihydroxy-carbazol-3-yl]ethanone] | 1.39 | did not promote endocytosis of Tf | 39% | Activated | 48 | 110 | 600 | 0.11 µM | 110 nM | 600 nM | 8.22 × 10^7 ± 6.64 × 10^6 trypanosomes/mL | failed to control parasitemia | 3.14 ± 0.25 µM·h | 1 h | 3.61 h | 1 h | 4.33 h | 60 nM | 122 nM | 513 nM | – |
| CC(=O)c1cc2c3cc(C(C)=O)c(O)cc3n(CCNC(C)C)c2cc1O [CBL0187, 1-[6-acetyl-2,7-dihydroxy-9-[2-(isopropylamino)ethyl]carbazol-3-yl]ethanone] | 1.31 | had no effect on the pathway | 30.9% | Activated | 54 | 110 | 550 | 0.11 µM | 110 nM | 550 nM | 8.99 × 10^7 ± 2.43 × 10^7 trypanosomes/mL | failed to control parasitemia | 2.95 ± 0.18 µM·h | 1.5 ± 0.7 h | > 6 h | 2 h | > 6 h | 41 nM | 98 nM | 592 nM | DTC25 T. brucei Lister427 (T. brucei Lister427 [2]; [5]): 54 nM |
